Data as given in the Kinase Knowledgebase extract (Sharma et al. 2016).

Columns and labels:
EGFR (human) = EGFR (human) (UniProt P00533); conditions: nih3t3
EGFR = EGFR (UniProt P00533)
EGFR, sequence (P00533 whole entry, looked up): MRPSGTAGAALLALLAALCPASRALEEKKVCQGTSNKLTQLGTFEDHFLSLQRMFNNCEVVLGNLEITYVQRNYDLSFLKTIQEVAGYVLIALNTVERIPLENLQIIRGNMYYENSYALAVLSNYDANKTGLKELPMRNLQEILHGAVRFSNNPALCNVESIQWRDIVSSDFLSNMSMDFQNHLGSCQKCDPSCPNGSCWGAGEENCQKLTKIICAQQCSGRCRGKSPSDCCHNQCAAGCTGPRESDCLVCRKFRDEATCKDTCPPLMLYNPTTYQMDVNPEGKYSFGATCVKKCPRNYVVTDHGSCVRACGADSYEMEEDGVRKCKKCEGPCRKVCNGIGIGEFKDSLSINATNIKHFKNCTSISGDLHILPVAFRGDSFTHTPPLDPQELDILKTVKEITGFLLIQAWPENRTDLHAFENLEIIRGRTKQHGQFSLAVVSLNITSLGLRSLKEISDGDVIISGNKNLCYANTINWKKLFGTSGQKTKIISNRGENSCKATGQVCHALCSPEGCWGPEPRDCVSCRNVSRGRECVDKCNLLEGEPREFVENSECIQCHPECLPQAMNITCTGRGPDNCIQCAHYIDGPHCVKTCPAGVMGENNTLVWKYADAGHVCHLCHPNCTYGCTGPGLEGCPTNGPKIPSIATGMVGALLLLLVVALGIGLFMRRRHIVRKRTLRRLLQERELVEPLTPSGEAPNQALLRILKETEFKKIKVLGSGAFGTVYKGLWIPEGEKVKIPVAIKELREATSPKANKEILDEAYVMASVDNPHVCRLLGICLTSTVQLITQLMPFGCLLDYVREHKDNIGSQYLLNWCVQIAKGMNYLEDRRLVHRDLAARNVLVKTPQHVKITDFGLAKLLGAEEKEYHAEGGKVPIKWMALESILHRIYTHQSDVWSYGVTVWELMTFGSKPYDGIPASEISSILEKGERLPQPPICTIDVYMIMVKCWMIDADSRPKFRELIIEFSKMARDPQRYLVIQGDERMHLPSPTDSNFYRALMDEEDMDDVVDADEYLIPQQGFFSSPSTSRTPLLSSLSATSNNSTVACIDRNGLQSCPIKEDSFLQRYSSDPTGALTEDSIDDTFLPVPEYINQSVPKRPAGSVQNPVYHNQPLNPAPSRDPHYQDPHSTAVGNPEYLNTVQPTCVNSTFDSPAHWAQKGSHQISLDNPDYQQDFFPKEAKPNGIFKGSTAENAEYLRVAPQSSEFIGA

EGFR (human), sequence (P00533 whole entry, looked up): as above

Compound | IC50 (EGFR (human)) [µM] | IC50 (EGFR) [µM]
Cc1[nH]c(/C=C2\C(=O)Nc3ccccc32)c(C)c1CCCN1CCOCC1 | > 50 | > 100
Cc1[nH]c(/C=C2\C(=O)Nc3ccc(S(=O)(=O)N(C)C)cc32)c(C)c1CCCN(C)C | 11.2 | > 100
Cc1c(CCC(=O)O)c[nH]c1/C=C1\C(=O)Nc2ccc(Br)cc21 | > 50 | –
Cc1[nH]c(/C=C2\C(=O)Nc3ccc(I)cc32)c(C)c1CCC(=O)O | > 50 | –
Cc1[nH]c(/C=C2\C(=O)Nc3cc(-c4ccccc4)ccc32)c(C)c1CCCN(C)C | 4 | > 100
Cc1[nH]c(/C=C2\C(=O)Nc3ccc(Br)cc32)c(C)c1CCCN(C)C | 4.1 | > 100
Cc1c(CCC(=O)O)c[nH]c1/C=C1\C(=O)Nc2cc(-c3ccccc3)ccc21 | 30.5 | –
Cc1[nH]c(/C=C2\C(=O)Nc3ccc(Br)cc32)c(C)c1CCC(=O)O | > 50 | –
Cc1cccc2c1/C(=C/c1[nH]c(C)c(CCCN(C)C)c1C)C(=O)N2 | 20.2 | > 100
Cc1c(CCC(=O)O)c[nH]c1/C=C1\C(=O)Nc2cc(Br)ccc21 | > 50 | –
Cc1[nH]c(/C=C2\C(=O)Nc3cc(O)ccc32)c(C)c1CCC(=O)O | > 50 | –
Cc1cccc2c1/C(=C/c1[nH]c(C)c(CCC(=O)O)c1C)C(=O)N2 | > 50 | –
COc1ccc(-c2ccc3c(c2)NC(=O)/C3=C\c2[nH]c(C)c(CCCN(C)C)c2C)cc1 | – | > 100
COc1ccc2c(c1)/C(=C/c1[nH]c(C)c(CCCN(C)C)c1C)C(=O)N2 | – | > 100
Cc1ccc2c(c1)/C(=C/c1[nH]cc(CCC(=O)O)c1C)C(=O)N2 | > 50 | –
Cc1[nH]c(/C=C2\C(=O)Nc3cc(-c4ccccc4)ccc32)c(C)c1CCC(=O)O | 32.7 | –
Cc1[nH]c(/C=C2\C(=O)Nc3cc(-c4ccccc4)ccc32)c(C)c1CCCN1CCOCC1 | > 50 | > 100
Cc1[nH]c(/C=C2\C(=O)Nc3ccc(S(=O)(=O)N4CCOCC4)cc32)c(C)c1CCCN(C)C | 29.8 | > 100
Cc1c(CCC(=O)O)c[nH]c1/C=C1\C(=O)Nc2cc(Cl)ccc21 | > 50 | –

Compound | IC50 (EGFR (human)) [µM] | IC50 (EGFR) [µM]
Cc1[nH]c(/C=C2\C(=O)Nc3ccc(Br)cc32)c(C)c1CCCN1CCOCC1 | 44.6 | > 100
Cc1ccc2c(c1)/C(=C/c1[nH]c(C)c(CCC(=O)O)c1C)C(=O)N2 | > 50 | –
Cc1ccc2c(c1)/C(=C/c1[nH]c(C)c(CCCN(C)C)c1C)C(=O)N2 | 25.4 | > 100
Cc1c(CCC(=O)O)c[nH]c1/C=C1\C(=O)Nc2ccccc21 | > 50 | –
Cc1[nH]c(/C=C2\C(=O)Nc3ccc(S(=O)(=O)NC(C)C)cc32)c(C)c1CCCN(C)C | – | > 100
COc1ccc2c(c1)NC(=O)/C2=C\c1[nH]c(C)c(CCCN(C)C)c1C | – | > 100
Cc1c(CCC(=O)O)c[nH]c1/C=C1\C(=O)Nc2ccc(Cl)cc21 | 12 | –
Cc1[nH]c(/C=C2\C(=O)Nc3ccccc32)c(C)c1CCCN(C)C | 12.6 | > 100
COc1ccc(-c2ccc3c(c2)NC(=O)/C3=C\c2[nH]c(C)c(CCCN3CCOCC3)c2C)cc1 | – | > 100
COc1ccccc1-c1ccc2c(c1)NC(=O)/C2=C\c1[nH]c(C)c(CCCN2CCOCC2)c1C | – | > 100
Cc1c(CCC(=O)O)c[nH]c1/C=C1\C(=O)Nc2ccc(I)cc21 | > 50 | –
Cc1cccc2c1/C(=C/c1[nH]cc(CCC(=O)O)c1C)C(=O)N2 | > 50 | –
Cc1[nH]c(/C=C2\C(=O)Nc3cccc(CCO)c32)c(C)c1CCCN(C)C | 25.3 | > 100
Cc1[nH]c(/C=C2\C(=O)Nc3ccc(Cl)cc32)c(C)c1CCCN(C)C | 7.49 | > 100
COc1cccc(-c2ccc3c(c2)NC(=O)/C3=C\c2[nH]c(C)c(CCCN3CCOCC3)c2C)c1 | – | > 100
Cc1[nH]c(/C=C2\C(=O)Nc3ccc(Cl)cc32)c(C)c1CCC(=O)O | > 50 | –
Cc1[nH]c(/C=C2\C(=O)Nc3ccc(S(N)(=O)=O)cc32)c(C)c1CCCN(C)C | 6.59 | > 100
Cc1[nH]c(/C=C2\C(=O)Nc3cc(Cl)ccc32)c(C)c1CCCN(C)C | 25.4 | 86.6
